The test system of series [1] is Human periodontal ligament fibroblasts (HPDLF). The experiment in a line: cell viability of human primary cells after antiseptics in T. buffer, AlamarBlue assay. It counts as cell-based. The procedure: Human periodontal ligament fibroblasts (HPDLF) were used in this study as test system, imitating closer the in vivo situation. The fibroblasts were purchased from ATCC and cultured in ScienCell FM medium, supplemented with 2% fetal bovine serum, 1% fibroblast growth factor and 1% penicillin-streptomycin (Sigma-Aldrich, Switzerland) in T75 flasks at 37° C. and 5% CO2.
To study the effect of antiseptic substances, at concentrations that are currently used in marketed products, the vitality of HPDLF cells was assessed. […] As a control, cells were incubated with T. buffer without antiseptic agent. Three replicate wells per concentration were tested. After 1 minute of incubation at 37°, the supernatant was removed and the wells were washed once with 600 μl of the fresh medium. Thereafter, cells were incubated with 600 µL of the fresh medium containing 0.015 mg/ml AlamarBlue dye, for 4 hours at 37° C. Finally, 100 μL of the medium were removed from each well and transferred to a new 96-well plate and the absorbance was measured using a BioTek microplate reader (test wavelength: 570 nm; reference wavelength: 630 nm).
After the incubation with the antiseptic agents, the metabolic activity was measured using an AlamarBlue assay (after 4 h).

A short description of series [2]: precipitation test of PHMB and CHX in alkaline buffers (visual inspection/visible clouding). The format is physicochemical.
For series [3], the system named is L929 murine fibroblasts.
Method: Mouse fibroblasts (L929 cell line) were used in this study as recommended cell line for cytotoxicity testing in accordance with EN ISO 10993-5.
The fibroblasts were purchased from ATCC and cultured in Dulbecco's Modified Eagle Medium-high glucose, supplemented with 10% fetal bovine serum and 1% penicillin-streptomycin (Sigma-Aldrich, Switzerland) in T75 flasks at 37° C. and 5% CO2. For the performance of the cytotoxicity experiments, L929 cells were seeded onto 96-well cell culture plates, 100 μ/well, at a density of 1×10^6 cells/mL to reach about 80% confluence after 24 hours.
After 60 minutes of incubation at 37°, the medium was removed and the wells were washed once with 100 μl of the fresh medium.
Thereafter, cells were incubated with 100 μL of the fresh medium containing 0.015 mg/ml AlamarBlue dye, for 2 hours at 37° C.
Finally, 100 μL of the media were removed from each well and transferred to a new 96-well plate and the absorbance was measured using a BioTek microplate reader (test wavelength: 570 nm; reference wavelength: 630 nm).
In order to test the cytocompatibility of alkaline buffers, a similar experiment was performed. However, the alkaline buffers were incubated for 10 minutes instead of 60 minutes. […]
After the incubation time, the metabolic activity, used as an indirect marker for cytotoxicity, was measured with an AlamarBlue assay. […]

Turning to `[H]/N=C(\N/C(=N/[H])NCCCCCCNC(=N)NC(=N)Nc1ccc(Cl)cc1)Nc1ccc(Cl)cc1` [CHX, 1,6-bis(4-chloro-phenylbiguanido)hexane], in series [1] (CHX 0.06 and 0.12% in T. buffer, 1 minute), the cell viability result is given as “Low cell viability”. Besides, the precipitation result is on record as “precipitation occurs” in series [2] (CHX 0.06% in 0.05 M NaOH/0.05 M glycine, pH 11.06) and “no precipitation” in series [2] (CHX 0.06% in 0.05 M NaOH/0.1 M glycine, pH 9.9). Take `C[S+](C)[O-]` [DMSO]: in series [1] (5% DMSO (negative control)), the cell viability entry is listed as “low cell viability”. Consider `[Na+].[OH-]` [sodium hydroxide], for which the “metabolic activity (AlamarBlue)” value in series [3] is “significant reduction in metabolic activity”.

The values above are taken from patent US20260231944A1, “ANTISEPTIC CONDITIONING FORMULATIONS” (THOMMES MEDICAL AG, priority 2023, published 2026).
